The values below come from US20260022134A1, “N-HETEROCYCLE-CONTAINING BORIC ACID COMPOUND AND PREPARATION METHOD AND APPLICATION THEREOF” (Hangzhou City University, priority 2022, published 2026).

What all share (assay type): cell-based
Series [1] concerns glioblastoma cells A172. Nature of the series: SRB colorimetric analysis, cell survival/proliferation. On the procedure:
(§1) After passage to the logarithmic phase, the cells were dissociated by 0.25 trypsin-EDTA and blown into single cells, and with a final cell concentration adjusted to […], inoculated into a 96-well plate with each well 100 μl (edge wells were filled with sterile PBS), 5% CO2, and 37° C. incubation. After 24 h (until a single layer of cells were spread to 30% to 50% of the well bottom), a cell culture solution containing drugs of corresponding concentrations was added and incubated for 24, 48 and 72 h in a 5% CO2, 37° C. incubator. Each drug concentration was provided with three parallel wells. The cells were medicate-cultured for 24, 48 and 72 h and then fixed by trichloroacetic acid (TCA). Each well of the cells was fixed by a pre-cooled 15% TCA liquid 100 μl, and then the 96-well plate was moved to 4° C. and stood for 4 h. The fixing liquid was discarded and the 96 wells were washed five times with sterile triple-distilled water and spin-dried and air-dried in 37° C. drying oven. Each well was added with 100 μl 0.4% SRB solution, and kept free from light and stood for 30 min at room temperature. The SRB not combined with proteins was cleaned with 1% glacial acetic acid and air-dried in 37° C. drying oven. The combined SRB was dissolved by 100 μl 10 mM non-buffer Tris alkaline solution (pH 10.5), and oscillated and mixed uniformly and then measured for the OD value on an enzyme-linked immuno detector. By blank control zero setting, the OD value of each well was measured at the position of a wavelength of 570 nm. The obtained growth inhibition rate of the tumor cells was defined as an in vitro inhibition rate of the drug on the tumor cells. The inhibition rate is […].
(§2) Firstly, we evaluated the growth inhibition effect of (3-((5-chloro-4-(1H-pyrrolo[2,3-b]pyridin-3-yl)pyrimidin-2-yl)amino)phenyl)boric acid on the MG cells U251A172 and U87 of three different glioblastoma cell series. With different concentrations of (3-((5-chloro-4-(1H-pyrrolo[2,3-b]pyridin-3-yl)pyrimidin-2-yl)amino)phenyl)boric acid, the cells U251, A172 and U87 were treated for 24 h, 48 h and 72 h and then based on the SRB detection method, the survival rate of the cells treated by (3-((5-chloro-4-(1H-pyrrolo[2,3-b]pyridin-3-yl)pyrimidin-2-yl)amino)phenyl)boric acid was detected. […] The cytotoxic effect of the U87 was more obvious than those of U251 and A172.

For series [2], the system named is glioblastoma cells U251. Described as above. On the procedure:
as §1, §2

Series [3] has as its system glioblastoma cells U87. The description is as above. Here is the method: as §1, §2
In series [4] the test system is glioblastoma cells A172. The series is described as follows: Cell colony-formation assay. The conditions noted are these: cells A172, 14 days, different concentrations. On the procedure: (§3) The cells of the logarithmic phase were taken and dissociated by 0.25% trypsin-EDTA and blown into single cells, and inoculated into the 6-well plate with a density of 2000 to 3000 pcs/well, and gently shaken to disperse the cells uniformly and then placed into 5% CO2, 37° C. incubator for incubation. After 24 h, the original culture medium was discarded and a fresh cell culture medium containing drugs of corresponding concentrations was then added, and the cells then were incubated in the incubator for about 14 days. During this period, the fresh culture medium containing the drugs of corresponding concentrations was replaced every two or three days. Frequent observation should be made to ensure that when a macroscopic colony appears in the culture plate, the culture was ended. The supernatant was discarded and cleaning was performed carefully twice with PBS. […] Finally, the number of the formed colonies was calculated.
(§4) In order to determine the effect of (3-((5-chloro-4-(1H-pyrrolo[2,3-b]pyridin-3-yl)pyrimidin-2-yl)amino)phenyl)boric acid on the cell colony formation ability of the glioblastoma, we treated the cells U251 and A172 with different concentrations of (3-((5-chloro-4-(1H-pyrrolo[2,3-b]pyridin-3-yl)pyrimidin-2-yl)amino)phenyl)boric acid and 14 days later, determined the cell colony formation ability by colony determination.

For series [5], the system named is glioblastoma cells U251. Nature of the series: Cell colony-formation assay. Conditions: cells U251, 14 days, different concentrations. Here is the method:
as §3, §4

Series [6] relates to glioma cells U251. Nature of the series: Flow cytometry cell cycle analysis (PI staining). Conditions: cells U251, 24 h treatment; increased from 14.70%. On the procedure:
(§5) The cells of the logarithmic phase were taken and dissociated by 0.25% trypsin-EDTA and blown into single cells, and inoculated into the 6-well plate with a density of 2000 to 3000 pcs/well, and gently shaken to disperse the cells uniformly and then placed into 5% CO2, 37° C. incubator for incubation. After 24 h, the original culture medium was discarded and a fresh cell culture medium containing drugs of corresponding concentrations was then added; after the cells were incubated for 24 h, the cells were dissociated by 0.25% trypsin-EDTA and cleaned twice with 1 mL of precooled PBS and then re-suspended with 250 μl PBS and slowly added dropwise into 750 μl of precooled 75% ethyl alcohol, and then fixed at the temperature of −20° C. overnight. […] Propidium iodide (PI) with a final concentration of […] was added for staining of 1 h free from light at room temperature, and then filtered by gauze and then transferred to a flow tube and detected and analyzed by a flow cytometer.
(§6) In order to determine the mechanism of the growth inhibition effect of (3-((5-chloro-4-(1H-pyrrolo[2,3-b]pyridin-3-yl)pyrimidin-2-yl)amino)phenyl)boric acid on the cells U251 and U87, after 24 h following the treatment with different concentrations of (3-((5-chloro-4-(1H-pyrrolo[2,3-b]pyridin-3-yl)pyrimidin-2-yl)amino)phenyl)boric acid, the cell cycle was analyzed and evaluated by flow cytometry.

The test system of series [7] is glioma cells U87. The series is described as follows: Flow cytometry cell cycle analysis (PI staining). Conditions: cells U87, 24 h treatment; increased from 11.99%. Here is the method:
as §5, §6
For orientation: A flow cytometer gives signals particle by particle.

Series [8] relates to p-Stat3, p-Akt, c-Myc, Cyclin B1, p-Erk1/2 in cells U251. The series is described as follows: Western blot of cell protein expressions. Conditions: cells U251, after 24 h treatment. On the procedure:
(§7) The cell supernatant was discarded and the cells were washed twice with PBS; based on cell confluence, a corresponding amount of Loading buffer was added, and stirred by a pipette tip while fully covered, and then collected to a centrifuge tube and centrifuged and then placed into a high-temperature metal bath of 100° C. for denaturation of 10 min, then cooled on ice and centrifuged and stored at the temperature of −20° C. for later use in the Western blot. The loading volume was adjusted by Western block pre-experiment to ensure the internal control proteins were uniform. • 2) BSA quantitative method
(§8) The cells treated by the trypsin dissociation and collection assay were centrifuged for 4 min at the rotation speed of 1500 rpm/min. The supernatant was discarded and the cells were re-suspended and washed with the pre-cooled PBS and then transferred to al. 5 mL Eppendorf tube and then centrifuged again and the supernatant was all discarded. Cell lysis was carried out on ice, and based on a precipitation amount, a proper amount of RIPA lysis solution was added and blown uniform by the pipette and then stood on ice. The cells were whirled or dispersed once every other 10 min, and 30 min later, the cells were put into a pre-cooled 4° C. centrifugal machine and centrifuged for 30 min at the rotation speed of 12000 rpm/min. The supernatant was sucked to a new Eppendorf tube to obtain a protein sample solution.
(§9) A standard protein BSA was selected for making a standard curve and the BSA was sequentially half-diluted by 10 factors. The protein sample was diluted with deionized water by 10 factors and 5 μL of diluted sample was sucked to a new Eppendorf tube and then 200 μL of BCA reagent was added to each tube (liquid A: liquid B=50:1) and placed in a 37° C. drying oven for incubation of 30 min After completion of the reaction, the liquid was whirled uniformly and 100 μL was sucked to a 96-well plate and measured for the OD value at the position of the wavelength 562 nm. Based on the standard curve, quantification was performed to sub-package the protein sample and then 5×Loading buffer was added for denaturation of 10 min at the temperature of 100° C., and cooled and centrifuged and then stored at the temperature of −20° C. for later use. • 3) Gel preparation: based on the size of target protein molecules, a desired gel was prepared and then solidified and then put into deionized water and stored in 4° C. refrigerator for later use. • 4) Electrophoresis: before electrophoresis, the protein sample was heated for 3 to 5 min at the temperature of 100° C. and then cooled and centrifuged and then loaded. A protein marker was added before the sample and then equal-volume or equal-quantity loading was performed in a sequence. After completion of loading, constant-voltage electrophoresis was performed with the voltage adjusted to 70V. Electrophoresis was stopped when the sample runs to a position 1 cm from the bottom glass plate, and transfer was performed. • 5) Transfer: 1×Transfer buffer 1000 mL containing 10% anhydrous ethanol was prepared, and the anhydrous ethanol activates PVDF membrane for 1 min and then the membrane was put into a Trans Buffer solution. Based on the target protein molecules, gel cutting was performed, and transfer was carried out based on black gel and white membrane. Under the condition of ice water bath, 330 mA constant-current transfer was performed for 70 min. • 6) Blocking: after transfer completion, the membrane was put into 5% skimmed mil powder solution and the shaker was blocked for 1 h at room temperature. • 7) Primary antibody incubation: a corresponding primary antibody was prepared for incubation of a target strip. The primary antibody was put into a 4° C. refrigerator and incubated by the shaker overnight. […]
(In general: A western blot detects proteins with antibodies after separation by electrophoresis.)

Series [9] has as its system p-Stat3, p-Akt, c-Myc, Cyclin B1, p-Erk1/2 in cells U87. The series is described as follows: Western blot of cell protein expressions. The conditions noted are these: cells U87, after 24 h treatment. Here is the method:
as §7, §8, §9

For series [10], the system named is glioblastoma cells A172. Nature of the series: Transwell cell migration assay. Conditions: cells A172, 24 h, different concentrations. On the procedure: (§10) The cells of the logarithmic phase were taken and dissociated by 0.25% trypsin-EDTA and blown into single cells. 200 μL of serum-free culture medium containing 5×10^4 cells was sucked and added into the Transwell upper chamber and 600 μL of culture medium containing 20% FBS was transferred to the Transwell lower chamber and drugs of corresponding concentrations were added to the upper and lower chambers. Culture was performed for 24 h in the cell incubator. In each well of the 24-well plate, 300 μL of 1% crystal violet methanol solution was added. After the culture medium was sucked and discarded, the Transwell chamber was placed into crystal violet and fixed free from light at room temperature and stained for 30 min. The chamber was picked by tweezers into the PBS buffer solution and washed slowly, and the cells and surplus crystal violet in the upper chamber were gently wiped with a cotton swab and then photographed under microscope for counting to calculate the number of the migrating cells of each group. […]

The test system of series [11] is glioblastoma cells U251. Nature of the series: Transwell cell migration assay. Conditions: cells U251, 24 h, different concentrations. Here is the method: as §10

Structures are written as SMILES. pIC50: −log10 of the molar value.

For the compound `OB(O)c1cccc(Nc2ncc(Cl)c(-c3c[nH]c4ncccc34)n2)c1` [(3-((5-chloro-4-(1H-pyrrolo[2,3-b]pyridin-3-yl)pyrimidin-2-yl)amino)phenyl)boric acid], the pIC50 (usually the IC50 on a negative log10 scale, so that one unit is a factor of ten) is 6.32 in [1] (Homo sapiens, A 172, cells A172 treated for 72 h); 6.42 in series [2] (Homo sapiens, U-251, cells U251 treated for 72 h); 6.77 in series [3] (cells U87 treated for 72 h). Also, the “cytotoxic effect (survival rate, SRB)” value in series [1] (cells A172, 24 h, 48 h and 72 h, different concentrations) was “significant cytotoxic effect”; in series [2] (cells U251, 24 h, 48 h and 72 h, different concentrations), “significant cytotoxic effect”; in series [3] (cells U87, 24 h, 48 h and 72 h, different concentrations) it was “significant cytotoxic effect”. The “number of cell colonies” value in series [4] and in series [5] was “reduced the number of the cell colonies in a dose-dependent way” throughout. Also, the “distribution of the G2/M phase” value in series [6] stood at 40.61%; in [7] it was 42.62%. The “Cyclin B1 protein expression” value in series [8] and in series [9] was “decreased” throughout. For the same compound, the c-Myc protein expression entry in series [8] and in [9] was “decreased” in each case. The p-Akt protein expression result in series [8] and in [9] was “decreased” each time. The p-Erk1/2 protein expression entry in series [8] and in series [9] was “increased” in each case. Further, the p-Stat3 protein expression entry in series [8] and in [9] was “decreased” throughout. Besides, the “cell migration (number of migrating cells)” value in [10] and in series [11] was “significant cell migration inhibition effect” throughout.
